Experimental data taken from publication PMC10905675, “INX-315, a Selective CDK2 Inhibitor, Induces Cell Cycle Arrest and Senescence in Solid Tumors” (Cancer Discovery, 2023).
Like-named read-outs stand apart in the source and are kept apart here.

Legend:
[1] = Microsomal stability assay; format: in vitro ADME
Experimental: Microsomal stability was determined by Absorption Systems (Exton, PA). INX-315 was tested in mixed-gender human liver microsomes (Lot #1010420), male Sprague-Dawley rat liver microsomes (Lot #1910100), male CD-1 mouse liver microsomes (Lot #2010017), and male beagle dog liver microsomes (Lot #2010046) were purchased from XenoTech/BioIVT by Absorption Systems. The reaction mixture, minus NADPH, was prepared as described below. The test article was added into the reaction mixture at a final concentration of 1 µmol/L. The control compound, testosterone, was run simultaneously with the test article in a separate reaction. The reaction mixture (without cofactor) was equilibrated in a shaking water bath at 37°C for 5 minutes. The reaction was initiated by the addition of the cofactor, and the mixture was incubated in a shaking water bath at 37°C. Aliquots (100 µL) were withdrawn at 0, 10, 20, 30, and 60 minutes. Test article and testosterone samples were immediately combined with 400 µL of ice-cold 50/50 acetonitrile (ACN)/H2O containing 0.1% formic acid and internal standard to terminate the reaction. The samples were then mixed and centrifuged to precipitate proteins. All samples were assayed by LC-MS/MS using electrospray ionization. The peak area response ratio (PARR) of analyte to internal standard at each time point was compared to the PARR at time 0 to determine the percent remaining at each time point. Half-lives and clearance were calculated using GraphPad software (RRID:SCR_002798), fitting to a single-phase exponential decay equation.

CDK5/p25 = molecular target: T1, CDK5/p25 (Homo sapiens, UniProt Q00535); experiment: Nanosyn biochemical assay; conditions: ATP at Km, value (SEM), read-out: IC50 (nmol/L) CDK5/p25
T1 construct: purchased BPS 40105
Experimental: (§1) Compounds were tested in kinase assays (Nanosyn, Inc.). The assays were completed using microfluidic kinase detection technology (Caliper Assay Platform). The compounds were tested in 12-point dose–response format in singlicate at the Km for ATP. Phosphoacceptor substrate peptide concentration used was 1 µmol/L and staurosporine was used as the reference compound for all assays. Details for individual Nanosyn assays performed are provided here: […]

CDK7 = molecular target: T2, CDK7 (Homo sapiens, UniProt P50613); experiment: Nanosyn biochemical assay; conditions: ATP at Km, value (SEM), read-out: IC50 (nmol/L) CDK7
T2 construct: purchased Carna 04-108
Experimental: as §1

CDK5 = molecular target: T3, CDK5 (Homo sapiens, UniProt Q00535); experiment: Nanosyn biochemical assay; conditions: ATP at Km, value (SEM), read-out: IC50 (nmol/L) CDK5
T3 construct: purchased ThermoFisher PV3000
Experimental: as §1

CDK9/cyclin T1 [2] = molecular target: T4, CDK9/cyclin T1 (Homo sapiens, UniProt P50750); experiment: NanoBRET live cell target engagement; format: binding; conditions: Supp Fig S1E, NanoBRET; read-out: Intracellular IC50 (nM) CDK9/T1
T4 construct: purchased Carna 04-110
Experimental: (§2) Reaction Bio (Malvern, PA) conducted NanoBRET assays utilizing Promega NanoLuc technology with two replicates per experiment. The CDK2/E1 and CDK1/B1 values are the average of two separate experiments.
(§3) HEK293 cells were transfected using Opti-MEM without serum containing ratios of 9.0 µg/mL of Transfection Carrier DNA, 1.0 µg/mL of NanoLuc fusion vector DNA and 1 mL of Opti-MEM without phenol red. 30 µL of FuGENE HD transfection reagent was added to each milliliter of DNA mixture to form lipid:DNA complex. After incubation for 20 minutes at room temperature, 1 part lipid/DNA complex was added to 20 parts HEK293 cells in suspension. Cells were then plated and incubated overnight before being trypsinized and resuspended at 2 × 10^5 cells/mL. NanoBRET tracer reagent was added to cells at a ratio of 1 part tracer to 20 parts cell suspension. Cells were added to a 384-well plate and incubated for 1 hour. Plates were removed and incubated at room temperature for 15 minutes to equilibrate before 3x complete substrate plus inhibitor was added. After 2–3 minutes of incubation at room temperature, donor and acceptor wavelengths (460 nm and 600 nm, respectively) were measured using an Envision 2104 plate reader.

CDK1/cyclin B1 [3] = molecular target: T5, CDK1/cyclin B1 (Homo sapiens, UniProt P06493); experiment: NanoBRET live cell target engagement; format: binding; conditions: Supp Fig S1E, NanoBRET; read-out: Intracellular IC50 (nM) CDK1/B1
T5 construct: purchased Millipore 14-450M
Experimental: as §2, §3

[4] = tested on: all CCNE1-amplified lines; experiment: CellTiter Glo viability assay; format: cell-based; conditions: all CCNE1-amplified lines, INX-315 vs PF-07104091, 6 days
Experimental: (§4) An exception to this is MCF7PDRCl5-1 cells which were first cultured for 5 days without palbociclib then plated as described. MCF7PDRCl5-1 cells were treated with either a dose curve of the indicated CDK4/6i or a dose curve of INX-315 + 1 µmol/L of the indicated CDK4/6i. Cell viability was determined using the CellTiter-Glo assay (Promega, G9241) following manufacturer's instructions. Plates were processed on either BioTek Synergy2 multi-mode (Agilent) or ClarioSTAR (BMG Labtech) plate readers. T47D and MCF7 cells were seeded into […] plates using BioTek 406 (Aglient) and treated with a ten-point dose concentration from 10 µmol/L to 0.3 nmol/L of INX-315 for 2× doubling times. Plates were fixed with 4% PFA and stained with Rhodamine-Phalloidin (Bio-Trend, 00027) and DAPI (5 mg/mL, Invitrogen, catalog no. D1306). Plates were imaged using CellInsight CX7 LZR and DAPI-positive cells were counted using Thermo Fisher Scientific HCS Studio Cell Analysis Software.

MCF7 Parent = experiment: Cell number dose-response; format: cell-based; conditions: Supp Fig S7D, 7 days, read-out: IC50 (nM) MCF7
Source text: (§5) MCF7 abemaciclib-resistant cells were generated by continuous treatment with abemaciclib at a concentration of 250 nmol/L for 72 days, followed by 500 nmol/L for 48 days. MCF7 fulvestrant-resistant cells were generated by continuous treatment of 100 nmol/L Fulvestrant for 125 days. MCF7 abemaciclib/fulvestrant-resistant cells were generated by treating abemaciclib-resistant cells continuously with 100 nmol/L fulvestrant for 137 days. T47D abemaciclib-resistant lines were generated by continuous treatment with abemaciclib at a concentration of 500 nmol/L for 73 days. T47D fulvestrant–resistant cells were generated by continuous treatment with 100 nmol/L fulvestrant for 68 days. T47D abemaciclib/fulvestrant-resistant cells were generated by treating abemaciclib-resistant cells with continuous treatment of 100 nmol/L Fulvestrant for 60 days. Resistant cell lines were cultured in medium containing drug(s) that the line is resistant to and further authenticated using short tandem repeat profiling.
as §4

MCF7 Abema-resistant = experiment: Cell number dose-response; format: cell-based; conditions: Supp Fig S7D, Abema-Resistant in 500 nM abemaciclib, 7 days; read-out: IC50 (nM) MCF7
Source text: as §5, §4

MCF7 Fulv-resistant = experiment: Cell number dose-response; format: cell-based; conditions: Supp Fig S7D, Fulv-Resistant in 100 nM fulvestrant, 7 days; read-out: IC50 (nM) MCF7
Source text: as §5, §4

CDK9/cyclin T1 [5] = molecular target: T4, CDK9/cyclin T1; experiment: Nanosyn biochemical assay; conditions: value (SEM)
Experimental: as §1

CDK1/cyclin B1 [6] = molecular target: T5, CDK1/cyclin B1; experiment: Nanosyn biochemical assay; conditions: value (SEM)
Experimental: as §1

CDK6/cyclin D3 = molecular target: T6, CDK6/cyclin D3 (Homo sapiens, UniProt Q00534); experiment: Nanosyn biochemical assay; conditions: value (SEM)
T6 construct: purchased Carna 04-107
Experimental: as §1

[7] = tested on: palbociclib-resistant MCF7 cells; experiment: CellTiter Glo viability assay; format: cell-based; conditions: Homo sapiens, MCF7, Supp Fig S9B, CDK4/6 inhibitor monotherapy; read-out: IC50
Experimental: as §4

CDK2/cyclin E1 = molecular target: T7, CDK2/cyclin E1 (Homo sapiens, UniProt P24941); experiment: Nanosyn biochemical assay; conditions: Nanosyn, ATP at Km; value (SEM); read-out: IC50 (nmol/L) CDK2/cyclin E1
T7 construct: purchased Millipore 14-475
Experimental: as §1

CDK2/cyclin A2 = molecular target: T8, CDK2/cyclin A2 (Homo sapiens, UniProt P24941); experiment: Nanosyn biochemical assay; conditions: ATP at Km, value (SEM), read-out: IC50 (nmol/L) CDK2/cyclin A2
T8 construct: purchased Millipore 14-448
Experimental: as §1

ST4316B PDX = experiment: PDX tumor growth; format: in vivo, mice; conditions: monotherapy; ribociclib 50 mg/kg per day
Experimental: PDX models were performed by Crown Biosciences (OV5398, GA0103, and GA0114) or XenoSTART (ST4316B). Tumor fragments from stock mice were harvested and implanted subcutaneously into the flank of NOD/SCID mice (OV5398, RRID:IMSR_JAX:001303), BALB/c nude mice (GA0103 and GA0114, RRID:IMSR_RJ:BALB-C-NUDE), or athymic nude mice (Crl:NU(NCr)-Foxn1nu, RRID:IMSR_CRL:490) (ST4316B). For CDX models, female athymic nude mice (Crl:NU(NCr)-Foxn1nu, RRID:IMSR_CRL:490) were inoculated with 1 × 10^7 50% Cultrex OVCAR3 cells in the flank. Experiments performed using MMTV-rtTA/tetO-HER2 mice were performed at the Peter MacCallum Cancer Centre. Tumor formation was induced and sustained in female mice with doxycycline as previously described ([33]). Randomization and treatment in all models began when median tumor volume reached a maximum of 300 mm^3.
Mice were treated via oral gavage. INX-315 was prepared weekly in 100% PEG400; abemaciclib was prepared as previously described ([33]) and ribociclib (Selleckchem, S7440) was prepared weekly in 0.5% methyl cellulose. To generate abemaciclib-resistant MMTV-rtTA/tetO-HER2 tumors, mice were treated continuously with abemaciclib at a dose of 75 mg/kg until tumors resumed growth as described in text. At this point and in all other MMTV-rtTA/tetO-HER2 mice experiments, mice were randomized into treatment groups and abemaciclib was administered to indicated groups at a dose of 50 mg/kg. In all MMTV-rtTA/tetO-HER2 mice experiments, INX-315 was administered at a dose of 50 mg/kg twice daily. For PDX model ST4316B, ribociclib was administered at 50 mg/kg per day.

CDK3/cyclin E1 = molecular target: T9, CDK3/cyclin E1 (Homo sapiens, UniProt Q00526); experiment: Nanosyn biochemical assay; conditions: ATP at Km, value (SEM), read-out: IC50 (nmol/L) CDK3/cyclin E1
T9 construct: purchased BPS 40103
Experimental: as §1

CDK4/cyclin D1 = molecular target: T10, CDK4/cyclin D1 (Homo sapiens, UniProt P11802); experiment: Nanosyn biochemical assay; conditions: ATP at Km, value (SEM), read-out: IC50 (nmol/L) CDK4/cyclin D1
T10 construct: purchased ThermoFisher PV4400
Experimental: as §1

[8] = both sexes, human, liver microsomes, 1 µmol/L, 60 min incubation, read-out: Half-life
[9] = male, CD-1, liver microsomes, Mouse microsomes, 60 min incubation
[10] = male, Sprague-Dawley, rat, liver microsomes, 1 µmol/L, 60 min incubation, read-out: Half-life
[11] = male, beagle, dog, liver microsomes, 1 µmol/L, 60 min incubation, read-out: Half-life
[12] = ATP at Km, read-out: IC50 (nmol/L) CDK1/cyclin B1
[13] = ATP at Km, read-out: IC50 (nmol/L) CDK6/cyclin D3

T5 sequence (P06493 whole entry): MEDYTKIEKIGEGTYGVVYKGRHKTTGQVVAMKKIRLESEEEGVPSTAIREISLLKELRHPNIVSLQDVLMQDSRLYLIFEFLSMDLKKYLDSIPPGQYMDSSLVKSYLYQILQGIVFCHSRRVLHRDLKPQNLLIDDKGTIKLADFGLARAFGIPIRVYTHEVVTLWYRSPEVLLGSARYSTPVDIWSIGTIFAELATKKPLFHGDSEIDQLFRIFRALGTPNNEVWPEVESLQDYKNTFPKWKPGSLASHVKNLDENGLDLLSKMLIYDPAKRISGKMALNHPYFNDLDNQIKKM
T5 sequence (P14635 whole entry partner): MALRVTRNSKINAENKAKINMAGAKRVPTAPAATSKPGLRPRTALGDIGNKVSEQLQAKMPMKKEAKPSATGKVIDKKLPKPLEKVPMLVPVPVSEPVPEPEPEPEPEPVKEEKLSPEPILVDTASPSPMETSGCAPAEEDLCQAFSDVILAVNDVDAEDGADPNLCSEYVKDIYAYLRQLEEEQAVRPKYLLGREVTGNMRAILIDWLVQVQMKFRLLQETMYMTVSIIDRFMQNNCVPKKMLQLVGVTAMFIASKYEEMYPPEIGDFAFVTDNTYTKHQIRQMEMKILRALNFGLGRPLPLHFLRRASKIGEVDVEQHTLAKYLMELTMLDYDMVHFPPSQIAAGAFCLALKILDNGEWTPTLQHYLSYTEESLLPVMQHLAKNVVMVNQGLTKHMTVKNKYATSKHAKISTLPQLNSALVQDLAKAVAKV
T6 sequence (Q00534 whole entry): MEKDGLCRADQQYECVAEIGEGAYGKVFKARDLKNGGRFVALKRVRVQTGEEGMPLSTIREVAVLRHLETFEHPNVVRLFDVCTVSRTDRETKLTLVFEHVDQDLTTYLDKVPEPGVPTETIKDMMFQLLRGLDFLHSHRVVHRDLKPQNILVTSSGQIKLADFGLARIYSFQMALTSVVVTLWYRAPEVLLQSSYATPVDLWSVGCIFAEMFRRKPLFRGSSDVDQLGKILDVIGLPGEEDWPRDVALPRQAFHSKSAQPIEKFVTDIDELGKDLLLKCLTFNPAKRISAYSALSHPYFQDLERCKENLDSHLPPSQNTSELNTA
T6 sequence (P30281 whole entry partner): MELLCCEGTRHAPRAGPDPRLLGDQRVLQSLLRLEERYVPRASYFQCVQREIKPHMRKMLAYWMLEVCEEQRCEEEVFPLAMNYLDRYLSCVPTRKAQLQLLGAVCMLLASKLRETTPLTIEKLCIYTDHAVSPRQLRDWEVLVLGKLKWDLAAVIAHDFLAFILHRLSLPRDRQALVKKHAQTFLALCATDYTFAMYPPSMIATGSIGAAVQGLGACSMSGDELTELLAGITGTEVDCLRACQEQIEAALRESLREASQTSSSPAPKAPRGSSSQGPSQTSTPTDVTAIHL
T3 sequence (Q00535 whole entry): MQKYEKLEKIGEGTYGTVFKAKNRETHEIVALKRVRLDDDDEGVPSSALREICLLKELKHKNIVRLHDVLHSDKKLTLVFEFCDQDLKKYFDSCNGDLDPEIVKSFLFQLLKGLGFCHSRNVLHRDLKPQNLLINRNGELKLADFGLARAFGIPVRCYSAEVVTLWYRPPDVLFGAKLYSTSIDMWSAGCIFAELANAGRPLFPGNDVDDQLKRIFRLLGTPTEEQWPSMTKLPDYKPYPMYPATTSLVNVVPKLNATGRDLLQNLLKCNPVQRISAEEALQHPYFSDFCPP
T3 sequence (Q15078 2-307 partner limits assumed): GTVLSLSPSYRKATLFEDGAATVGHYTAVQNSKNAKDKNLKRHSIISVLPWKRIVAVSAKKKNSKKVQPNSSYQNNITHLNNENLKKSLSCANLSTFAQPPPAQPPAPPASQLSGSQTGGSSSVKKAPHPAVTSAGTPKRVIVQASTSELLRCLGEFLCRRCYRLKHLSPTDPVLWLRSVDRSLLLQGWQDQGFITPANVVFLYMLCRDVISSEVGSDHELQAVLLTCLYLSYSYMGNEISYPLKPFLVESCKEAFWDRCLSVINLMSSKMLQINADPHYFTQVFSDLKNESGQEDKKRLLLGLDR
T2 sequence (P50613 whole entry): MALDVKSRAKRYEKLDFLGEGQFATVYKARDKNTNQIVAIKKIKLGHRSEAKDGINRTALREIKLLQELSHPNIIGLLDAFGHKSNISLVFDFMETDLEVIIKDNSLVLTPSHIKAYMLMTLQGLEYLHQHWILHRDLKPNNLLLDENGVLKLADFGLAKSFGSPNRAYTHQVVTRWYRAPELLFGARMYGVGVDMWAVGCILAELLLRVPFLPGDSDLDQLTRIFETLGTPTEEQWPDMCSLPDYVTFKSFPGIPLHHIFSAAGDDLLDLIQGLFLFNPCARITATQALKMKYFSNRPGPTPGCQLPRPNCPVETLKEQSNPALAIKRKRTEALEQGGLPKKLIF
T2 sequence (P51946 whole entry partner): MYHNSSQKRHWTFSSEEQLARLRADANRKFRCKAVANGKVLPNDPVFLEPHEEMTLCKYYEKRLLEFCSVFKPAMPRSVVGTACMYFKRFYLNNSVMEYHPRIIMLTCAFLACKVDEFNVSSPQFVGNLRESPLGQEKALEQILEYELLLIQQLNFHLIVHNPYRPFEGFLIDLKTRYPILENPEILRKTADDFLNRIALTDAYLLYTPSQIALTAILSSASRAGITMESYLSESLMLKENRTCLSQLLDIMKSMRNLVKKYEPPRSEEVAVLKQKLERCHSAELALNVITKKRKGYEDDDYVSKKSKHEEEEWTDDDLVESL
T2 sequence (P51948 whole entry partner): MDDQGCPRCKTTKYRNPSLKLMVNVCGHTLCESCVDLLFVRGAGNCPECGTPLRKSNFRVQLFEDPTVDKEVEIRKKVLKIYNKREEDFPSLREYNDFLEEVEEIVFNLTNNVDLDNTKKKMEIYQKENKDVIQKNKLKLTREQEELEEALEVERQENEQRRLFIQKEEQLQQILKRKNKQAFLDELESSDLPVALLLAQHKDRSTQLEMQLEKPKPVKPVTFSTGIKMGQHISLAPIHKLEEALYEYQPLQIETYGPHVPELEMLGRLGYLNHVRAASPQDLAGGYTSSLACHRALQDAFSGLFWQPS
T4 sequence (P50750 whole entry): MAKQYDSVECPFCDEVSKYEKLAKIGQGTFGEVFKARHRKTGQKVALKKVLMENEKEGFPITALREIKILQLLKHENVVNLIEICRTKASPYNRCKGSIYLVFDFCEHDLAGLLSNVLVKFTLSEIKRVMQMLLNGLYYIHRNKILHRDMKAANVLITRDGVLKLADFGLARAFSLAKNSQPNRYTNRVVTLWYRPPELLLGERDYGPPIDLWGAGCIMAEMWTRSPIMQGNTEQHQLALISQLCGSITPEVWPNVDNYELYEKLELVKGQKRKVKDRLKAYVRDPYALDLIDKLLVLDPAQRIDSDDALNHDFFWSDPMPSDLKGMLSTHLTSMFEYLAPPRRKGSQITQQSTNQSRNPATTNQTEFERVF
T4 sequence (O60563 whole entry partner): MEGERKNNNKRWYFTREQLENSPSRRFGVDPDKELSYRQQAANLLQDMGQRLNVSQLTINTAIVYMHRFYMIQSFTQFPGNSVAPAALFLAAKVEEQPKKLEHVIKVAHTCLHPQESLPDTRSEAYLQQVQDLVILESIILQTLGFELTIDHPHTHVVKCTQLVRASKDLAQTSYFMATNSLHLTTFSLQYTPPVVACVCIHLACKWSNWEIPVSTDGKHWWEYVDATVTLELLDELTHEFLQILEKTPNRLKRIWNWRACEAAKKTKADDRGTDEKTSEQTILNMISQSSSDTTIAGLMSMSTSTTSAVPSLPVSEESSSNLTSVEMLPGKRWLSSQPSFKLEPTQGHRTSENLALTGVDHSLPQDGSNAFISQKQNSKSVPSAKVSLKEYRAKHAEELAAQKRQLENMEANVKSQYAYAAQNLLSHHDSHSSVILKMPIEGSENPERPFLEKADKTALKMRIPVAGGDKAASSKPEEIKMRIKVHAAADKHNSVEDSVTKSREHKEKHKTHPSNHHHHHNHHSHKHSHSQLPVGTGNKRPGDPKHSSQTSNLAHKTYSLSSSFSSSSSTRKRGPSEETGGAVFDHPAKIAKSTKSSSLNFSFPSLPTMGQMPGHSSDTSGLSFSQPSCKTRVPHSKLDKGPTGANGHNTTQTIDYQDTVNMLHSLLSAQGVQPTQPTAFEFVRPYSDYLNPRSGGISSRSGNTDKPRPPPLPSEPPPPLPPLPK
T1 sequence (Q00535 whole entry): as the sequence (Q00535 whole entry) above
T1 sequence (Q15078 99-307 partner limits assumed): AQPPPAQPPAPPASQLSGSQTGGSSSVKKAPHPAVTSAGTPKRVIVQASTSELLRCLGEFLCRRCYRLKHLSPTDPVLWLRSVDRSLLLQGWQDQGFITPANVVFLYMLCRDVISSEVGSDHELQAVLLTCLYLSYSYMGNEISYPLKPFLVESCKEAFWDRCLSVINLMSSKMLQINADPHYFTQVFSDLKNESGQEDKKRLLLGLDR

| Structure (SMILES) | half-life at 1 µmol/L [1, 8] [min] | half-life at 1 µmol/L [1, 9] [min] | half-life at 1 µmol/L [1, 10] [min] | half-life at 1 µmol/L [1, 11] [min] | IC50 (CDK5/p25) [nmol/L] | IC50 (CDK7) [nmol/L] | IC50 (CDK5) [nmol/L] | IC50 (CDK2/cyclin E1) [nmol/L] | IC50 (CDK1/cyclin B1 [6]; [12]) [nM] | IC50 (CDK6/cyclin D3; [13]) [nM] | IC50 (CDK2/cyclin A2) [nmol/L] | also measured |
| --- | --- | --- | --- | --- | --- | --- | --- | --- | --- | --- | --- | --- |
| CN1CCN(c2ccc(Nc3ncc4cc5n(c4n3)C3(CCCCC3)CNC5=O)nc2)CC1 [Trilaciclib, reference compound] | > 60 | 28 | > 60 | 5 | 1710 | 4640 | 1240 | – | – | – | – | half-life at 1 µmol/L ([1]; both sexes, human, liver microsomes, longer than the duration of the experiment, read-out: calculated half-life (in parenthesis)): 66 min; half-life at 1 µmol/L ([1]; male, Sprague-Dawley, rat, liver microsomes, longer than the duration of the experiment, read-out: calculated half-life (in parenthesis)): 73 min |
| COCc1cc(C(=O)Nc2cc([C@H]3CC[C@@H](OC(=O)NC(C)C)C3)[nH]n2)n(C)n1 [PF-07104091, reference compound] | – | – | – | – | – | – | – | – | – | – | – | IC50 (CDK9/cyclin T1 [2]): > 10000 nM; IC50 (CDK1/cyclin B1 [3]): 1180 nM; IC50 [4]: 125 nM; IC50 (MCF7 Parent; Parent in DMSO): 562 nM; IC50 (MCF7 Parent; Parent+Abema: 500 nM abemaciclib concurrently): 232 nM; IC50 (MCF7 Abema-resistant): 41.8 nM; IC50 (MCF7 Fulv-resistant): 508 nM; IC50 (CDK9/cyclin T1 [5]; Supp Fig S1C, read-out: IC50 (nM) CDK9/cyclin T1): 363 nM; IC50 (CDK1/cyclin B1 [6]; Supp Fig S1C, read-out: IC50 (nM) CDK1/B1): 65.8 nM; IC50 (CDK6/cyclin D3; Supp Fig S1C, read-out: IC50 (nM) CDK6/cyclin D3): > 1000 nM |
| CC(C)N1CCN(c2ccc(Nc3ncc4cc5n(c4n3)C3(CCCCC3)CNC5=O)nc2)CC1 [Lerociclib, lerociclib, reference compound] | – | – | – | – | – | – | – | – | – | – | – | IC50 [7]: 1420 nM |
| C[C@@H]1NC(=O)C2(CCCCC2)n2c1cc1cnc(Nc3ccc(S(N)(=O)=O)cc3)nc12 [Compound C] | 15.3 | < 10 | < 10 | 23.4 | – | 796 | 50.2 | 5 | 41 | 214 | 4 | – |
| CN(C)C(=O)c1cc2cnc(Nc3ccc(N4CCNCC4)cn3)nc2n1C1CCCC1 [ribociclib, reference compound] | – | – | – | – | – | – | – | – | – | – | – | tumor growth (ST4316B PDX): slowed tumor growth modestly |
| NS(=O)(=O)c1ccc(Nc2ncc3cc4n(c3n2)C2(CCCCC2)CN=C4)cc1 [Compound B] | < 10 | < 10 | < 10 | < 10 | 0.4 | 33.5 | 0.5 | 0.1 | 1.2 | 8.6 | 0.1 | IC50 (CDK3/cyclin E1): 0.5 nmol/L; IC50 (CDK9/cyclin T1 [5]; ATP at Km, read-out: IC50 (nmol/L) CDK9/cyclin T1): 1.6 nM; IC50 (CDK4/cyclin D1): 3.6 nmol/L |
